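Test compounds were applied to cells in 96-well plates for 48 hours at 5 doses. GI50 marks 50% less growth.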 Calls of active or inactive are those of the source. Rule as the data show it: active = GI50 up to about 1.1 µM and inactive = higher. Square brackets hold non-standard residues; d marks the D form. Peptide text beside a SMILES is read from it. * marks the point of attachment. ξ: configuration not given here. NMeN = CN[C@@H](CC(N)=O)C(=O)O; NMeV = CN[C@H](C(=O)O)C(C)C; ξNMeV = CNC(C(=O)O)C(C)C; Boc = CC(C)(C)OC(=O)*; ξNMeA = CNC(C)C(=O)O
Columns and labels:
Test in all cases: NCI tumour cell line growth inhibition, 48 h
[1] = tested on: EKVX
[2] = tested on: CCRF-CEM
[3] = tested on: OVCAR-4
[4] = tested on: M14
[5] = tested on: KM-20L2
[6] = tested on: Malme-3M
[7] = tested on: SK-MEL-2
[8] = tested on: SNB-75
[9] = tested on: TK-10
[10] = tested on: SNB-19
[11] = tested on: LOX IMVI
[12] = tested on: HCT-15
[13] = tested on: UO-31
[14] = tested on: NCI-H522
[15] = tested on: CAKI-1
[16] = tested on: KM12
[17] = tested on: HCT-116
[18] = tested on: DU-145
[19] = tested on: PC-3
[20] = tested on: BT-549

SMILES | GI50 [1] | GI50 [2] | GI50 [3] | GI50 [4] | GI50 [5] | GI50 [6] | GI50 [7] | GI50 [8] | GI50 [9] | GI50 [10] | GI50 [11] | GI50 [12] | GI50 [13] | GI50 [14] | GI50 [15] | GI50 [16] | GI50 [17] | GI50 [18] | GI50 [19] | GI50 [20]
N#Cc1cccc(/C=N/C23CC4CC(CC(C4)C2)C3)c1 | > 100 µM (inactive) | 62.5 µM (inactive) | > 100 µM (inactive) | > 100 µM (inactive) | > 100 µM (inactive) | > 100 µM (inactive) | > 100 µM (inactive) | > 10 µM (inactive) | > 100 µM (inactive) | > 100 µM (inactive) | > 100 µM (inactive) | > 100 µM | > 100 µM (inactive) | > 100 µM (inactive) | > 100 µM (inactive) | > 100 µM (inactive) | 57.3 µM (inactive) |  |  | 
C1=CC=C2NCCOCC/N=C3/C=CC=CC=C3NCCOCC/N=C\2C=C1 | > 100 µM (inactive) | 40 µM (inactive) | 59.2 µM (inactive) | 17.8 µM (inactive) | 21.6 µM (inactive) | 21.5 µM (inactive) | 69 µM (inactive) | > 100 µM (inactive) | > 100 µM (inactive) | > 100 µM (inactive) | 29 µM (inactive) | 41.3 µM | > 100 µM (inactive) | > 100 µM (inactive) | > 100 µM (inactive) | 66.2 µM (inactive) | 28.4 µM (inactive) |  |  | 
CN(C)C(=C1C(Br)=C(Br)C(Br)=C1Br)N(C)C | > 100 µM (inactive) | 26.3 µM (inactive) | > 100 µM (inactive) | > 100 µM (inactive) | > 100 µM (inactive) | > 100 µM (inactive) | > 100 µM (inactive) | 38.6 µM (inactive) | > 100 µM (inactive) |  | 21.5 µM (inactive) | > 100 µM | > 100 µM (inactive) | 17.5 µM (inactive) | > 100 µM (inactive) | > 100 µM (inactive) |  |  |  | 
COc1cc(/C=C2\CCC(C)(CN(C)C)C2=O)cc(OC)c1OC (configuration not stated) | > 58.3 µM (inactive) | 52.4 µM (inactive) | > 100 µM (inactive) | > 100 µM (inactive) | > 64.9 µM (inactive) | > 100 µM (inactive) | > 100 µM (inactive) | > 100 µM (inactive) | > 100 µM (inactive) | > 100 µM (inactive) | > 100 µM (inactive) | > 100 µM | > 100 µM (inactive) | 50.7 µM (inactive) | > 100 µM (inactive) | > 100 µM (inactive) | > 79.3 µM (inactive) |  |  | 
C/C(=N\N(C)C)C(CN1CCCCC1)C(c1ccccc1)c1c(O)c2ccccc2oc1=O (configuration not stated) | > 100 µM (inactive) | > 100 µM (inactive) | > 100 µM (inactive) | > 100 µM (inactive) | > 100 µM (inactive) | > 100 µM (inactive) | > 100 µM (inactive) | 28.3 µM (inactive) | > 100 µM (inactive) | > 100 µM (inactive) | > 100 µM (inactive) | > 100 µM | 32.6 µM (inactive) | > 100 µM (inactive) | > 100 µM (inactive) | > 100 µM (inactive) | > 100 µM (inactive) |  |  | 
CC(C)(C)C1CCC2(CC1)c1[nH]c3ccccc3c1C1(CCC(C(C)(C)C)CC1)c1[nH]c3ccccc3c12 (configuration not stated) | > 100 µM (inactive) | > 100 µM (inactive) | > 100 µM (inactive) | > 100 µM (inactive) | > 100 µM (inactive) | > 100 µM (inactive) | > 100 µM (inactive) | 70.1 µM (inactive) | > 100 µM (inactive) | > 100 µM (inactive) | > 100 µM (inactive) | > 100 µM | > 100 µM (inactive) | > 100 µM (inactive) | > 100 µM (inactive) | > 100 µM (inactive) | 41.6 µM (inactive) |  |  | 
C1CCN(C2OC3C(COC3N3CCCCC3)OC2OC2CCO[C@@H]2N2CCCCC2)CC1 (some centres not stated) | 33.8 µM (inactive) | 5.11 µM (inactive) | 34 µM (inactive) | 40.6 µM (inactive) | > 100 µM (inactive) | 21.1 µM (inactive) | 20.8 µM (inactive) | 9.98 µM (inactive) | 80.9 µM (inactive) | 36.2 µM (inactive) | 75 µM (inactive) | 29.5 µM | 44.5 µM (inactive) | 12.4 µM (inactive) | 30.1 µM (inactive) | 78.5 µM (inactive) | 34.7 µM (inactive) |  |  | 
C=C(CCCCCCCCC)CC(=O)SCCNC(=O)CCNC(=O)C(O)C(C)(C)COP(=O)(O)OP(=O)(O)OCC1OC(n2cnc3c(N)ncnc32)C(O)C1OP(=O)(O)O (configuration not stated) | 51.2 µM (inactive) | > 70.6 µM (inactive) | 60.4 µM (inactive) | 25.5 µM (inactive) | > 100 µM (inactive) | > 100 µM (inactive) | 60.8 µM (inactive) | 30 µM (inactive) | > 100 µM (inactive) | > 71.6 µM (inactive) | 38.3 µM (inactive) | 50.1 µM | 99.1 µM (inactive) | 11.8 µM (inactive) | > 100 µM (inactive) | 52.6 µM (inactive) | 45.5 µM (inactive) | > 100 µM (inactive) | 56.4 µM (inactive) | > 60.8 µM (inactive)
COC(=O)C(C)N(C)C(=O)[C@H](CC(N)=O)N(C)C(=O)[C@@H]1CCCN1C(=O)[C@H](C(C)C)N(C)C(=O)C(C(C)C)N(C)C(=O)[C@@H](NC(=O)OC(C)(C)C)C(C)C (some centres not stated) (Boc-V[ξNMeV][NMeV]P[NMeN][ξNMeA]-OMe) | > 50 µM (inactive) | > 50 µM (inactive) | > 100 µM (inactive) | > 50 µM (inactive) | > 100 µM (inactive) | > 100 µM (inactive) | > 50 µM (inactive) | > 100 µM (inactive) | > 50 µM (inactive) | > 50 µM (inactive) | 23.9 µM (inactive) | > 100 µM | 24.7 µM (inactive) | > 50 µM (inactive) | > 50 µM (inactive) | > 100 µM (inactive) | 30.3 µM (inactive) | > 50 µM (inactive) | 11.4 µM (inactive) | > 50 µM (inactive)

From ChEMBL document CHEMBL1201862, “PubChem BioAssay data set” (2004)
